# Measured values published in US20050227915A1, “Methods and reagents for treating neurodegenerative diseases and motor deficit disorders” (priority 2001, published 2005).
# “Also recorded” adds a separate entry of the source. Read-outs that look alike come from different tables or passages of the source.
# Experiments:
# [1] = tested on: deacetylase; settings: cited from earlier work
# [2] = tested on: huntingtin aggregate load; experiment: Organotypic hippocampal slice culture assay of polyQ aggregation; type: cell-based, R6/2 mice
# Description: The present inventors established that HOP-[…]-CD has no effect on polyQ aggregation over a 5-log concentration range (data not shown) and therefore the HOP-[…]-CD concentration required to complex 250 μM was used as the vehicle. The medium was changed twice weekly and slices were fixed at weekly intervals from 2 weeks in culture. The huntingtin aggregate load was assessed by quantitative indirect immunofluorescence and results were analyzed using the general linear model ANOVA with false discovery rate correction (Hochberg, Y. & Benjamini, Y. (1990) Stat Med 9: 811-8).
# We have developed this technique to bridge the gap between wholly in vitro aggregation assays and preclinical trials and allow us to quantify aggregate formation in a system in which aggregates form at the same rate and in the same sequence as they do in vivo.
# [3] = Body weight in SAHA preclinical trial; type: in vivo, mice
# Description: (§1) Animals. […] Control mice were wild-type female littermates.
# (§2) Behavioral analysis: Rotarod impairment was assessed on a Ugo Basile 7650 accelerating Rotarod (Linton Instrumentation, UK), modified as previously described (Hockly et al, submitted). Animals (R6/2: n=13, wild-type: n=12 per treatment group) were tested at 4 weeks of age to establish their baseline performance and then at 8, 10 and 12 weeks of age. Grip strength was measured once per fortnight (Hockly et al. submitted) and animals weighed weekly to the nearest 0.1 g. Statistical analysis of grip strength used ANOVA on the mean grip strength. Rotarod data were analyzed at each time point using repeated measures in a linear mixed effects model (in S-plus).
# [4] = tested on: flies expressing Q48; experiment: Pseudopupil analysis of rhabdomeres in flies expressing Q48 polyglutamine peptides; type: in vivo, Drosophila; settings: for progressive photoreceptor neuron degeneration: feeding initiated only in adult flies; for distribution of rhabdomeres by day 6: Q48 flies fed inhibitor, data not shown; for neurodegenerative effect of Q48 (photographs of ommatidia): in vivo
# Description: (§3) Drosophila stocks and crosses. Expression of polyglutamine-containing peptides is driven by the bipartite expression system activator sequence (UAS)-GAL4 in transgenic flies (Marsh, J. L. et al. (2000) Hum. Mol. Gen. 9, 13-25).
# (§4) Injection of plasmids expressing Httex1p with 20 or 93 glutamines produced nine and ten lines, respectively. Two lines with the most severe neuronal phenotype (P463 and P465) were chosen for the experiments described herein. Polyglutamine stocks are w;P(w^+mC=UAS-Q93httexon1)^4F1 and w;P(w^+mC=UAS-Q48+myc/flag)^20. Constructs under the control of a yeast UAS were crossed to flies expressing the yeast GAL4 transcriptional activator (Brand, A. and Perrimon, N., supra) driven by the neuron-specific promoter elav (chromosome 2 driver for Q48 lines, Luo, L. et al. (1994) Genes Dev. 8, 1787-1802, and X-chromosome driver for Htt exon 1 lines, Lin, D. M. & Goodman, C. S. (1994) Neuron 13, 507-523) that is expressed in all neurons from embryogenesis onwards: w;P(w^+mC;w+; elav-GAL4)/CyO, P(w^+mC=Act-GFP)JMR1CyO actin-GFP or w;P(w^+mW.hs=GawB)elavC155.
# For testing the effect of Sin3A on polyglutamine phenotypes, we crossed w;P(w^+mC=UAS-Q93httexon1)^4F1 virgins to w;P{w^+mCwPw;elav-GAL4)/Y;Sin3A^08269/Bc Gla males.
# Pseudopupil analysis and transgene expression. Pseudopupil analysis allows visualization of the arrangement of rhabdomeres in the ommatidia of the compound eye (Franceschini, N. (1972) in Information processing in the visual systems of arthropods, ed. Wehner, R., pp 75-82). Adult flies were decapitated, one eye was dipped in a drop of nail polish and the head was mounted on a microscope slide. Eyes were analyzed with a Nikon EFD-3/Optiphot-2 scope using a 50× objective, and photographed with a Spot camera. At least 200 ommatidia were scored for each condition. For Western analysis of transgene expression, 20 larvae from each sample were ground in a buffer containing 0.1 M phosphate at pH7.1, 0.3 M sucrose, 0.02 mM phenylthiourea, protease cocktail and 0.1 mM PMSF, and 200 μg of total lysate were loaded per lane.
# [5] = tested on: R6/2 mice; experiment: Rotarod analysis of motor impairment; type: in vivo
# Description: as §1, §2
# [6] = Description: Drug Formulation. […] This solution was administered to mice in place of drinking water and replaced weekly.
# Animals. Affected mice were hemizygous R6/2 females (Mangiarini, L., et al. (1996) Cell 87: 493-506) (available from the Induced Mutant Resource, Jackson Laboratory, Bar Harbor Me., code B6CBA-TgN (HDexon1)62), bred and reared in our colony by backcrossing R6/2 males to C57BL/6×CBA F1 females. Transgenic animals were identified prior to weaning by PCR of tail-tip DNA and CAG repeat size was determined (Mangiarini, L., et al. (1997) Nat Genet 15: 197-200). Control mice were wild-type female littermates. Mice were weaned into their treatment groups at 4 weeks of age. […] From age 12 weeks, all animals were additionally given mash consisting of powdered chow mixed with the drug solution as given in the drinking bottle. The mice were subject to a 12 hour light (08:00-20:00), 12 hour dark (20:00-08:00) cycle. Living conditions and baseline characteristics of study groupings were standardized as previously described (Hockly et al. submitted).
# Assuming that a 20 g mouse drinks 3 ml/day, this corresponds to a dose of 1.33 g/l.
# Drug administration commenced at 30 days of age after an initial testing week, which was used to assort the mice into well-matched treatment groups (FIG. 28a).
# [7] = tested on: flies expressing Httex1p Q93; experiment: Pseudopupil analysis of rhabdomeres in flies expressing Httex1p Q93; type: in vivo, Drosophila
# Description: as §3
# as §4, with “w;P(w^+mW.hs=GawB)elavC155. […]” for “w;P(w^+mW.hs=GawB)elavC155.”
# Pseudopupil analysis and transgene expression. […] Eyes were analyzed with a Nikon EFD-3/Optiphot-2 scope using a 50× objective, and photographed with a Spot camera. At least 200 ommatidia were scored for each condition. […]
# [8] = tested on: PC12 cells induced to express Httex1p (103QP); experiment: Histone acetylation analysis in PC12 cell extract (Western blot); type: cell-based; settings: PC12 F103QP-EGFP cells, uninduced and induced, 5 mM sodium butyrate for last 24 h
# Description: Histone acetylation analysis in PC12 cell extract. PC12 cells, stably transfected with ecdysone-inducible (Invitrogen) F103QP-EGFP were plated, induced with 5 μM ponasterone (Invitrogen) for 48 h, and treated for the last 24 h with 5 mM sodium butyrate. Controls included uninduced and/or non-butyrate-treated cells. Cells were lysed in 1×HAT buffer with 50 mM NaCl, 0.3% NP-40, and a protease-inhibitor cocktail on ice for 10 min. A 50 μg aliquot of whole cell extract was analyzed by Western blot.
# Separate, independently-derived, ecdysone-inducible PC12 cell lines, denoted PC12/pBWN:Htt ex1Q103-EGFP cells and PC12/pWN:Httex1Q25-EGFP (E. S. Schweitzer, UCLA), were also analyzed. These clonal cells contain a modified exon 1 of Htt inserted into an expression vector containing the Bombyx ecdysone-regulated element (described in Suhr, S. T., et al. (1998) Proc. Natl. Acad. Sci. U.S.A. 95, 7999-8004).
# Twenty-five micrograms of whole cell extracts from PC12 cells stably transfected with plasmids encoding inducible 25QP-EGFP and 103QP-EGFP was analyzed for […]. Control cells (uninduced) and cells induced with 1 μM tebufenizide for 12 h were analyzed by Western blots. Anti-acetylated histone H4, anti-histone H3 and anti-acetylated histone H3 (all from Upstate Biotechnology) were used to determine levels of acetylated histones H3 and H4 relative to levels of total H3.
compound,measurement,setting,value
"CN(C)c1ccc(C(=O)NCCCCCCCC(=O)NO)cc1 [DBCH, dimethylaminobenzamidylcaprylic hydroxamate]",Effective Inhibitory Concentration Range,[1],nM-μM
"O=C(CCCCCCC(=O)Nc1ccccc1)NO [SAHA, Suberoylanilide hydroxamic acid]",aggregate load versus vehicle control,"[2]; 0.025 μM, 0.25 μM or 2.5 μM SAHA in HOP-[…]-CD, 3 and 4 weeks",no difference; also recorded: no effect
same,toxicity to slice cultures,[2]; 25 μM and 250 μM,toxic
same,failure of R6/2 mice to gain weight,"[3]; R6/2, 0.67 g/l SAHA",did not prevent; also recorded: did not ameliorate
same,weight deficit compared to appropriate placebo group,"[3]; both wild-type and R6/2, 13 weeks, 0.67 g/l SAHA",~18%
same,weight gain compared to littermates on placebo,"[3]; wild-type and R6/2, 0.67 g/l SAHA",failed to gain weight to the same extent; also recorded: failing to gain weight at the same rate as placebo-treated mice
same,effective concentration,[1],~2.5 µM
same,progressive photoreceptor neuron degeneration,[4]; 2 μM SAHA,still prevented; also recorded: arrested
same,distribution of rhabdomeres by day 6,[4],same distribution of rhadomeres by day 6 as 1-day-old flies
same,neurodegenerative effect of Q48 (photographs of ommatidia),[4],disrupts the neurodegenerative effect of Q48
same,Rotarod performance / motor impairment versus placebo,"[5]; R6/2, 0.67 g/l SAHA in HOP-[…]-CD in drinking water",strong and consistent improvement; also recorded: dramatically improves Rotarod performance; also recorded: highly significant improvement; also recorded: dramatically improve the motor impairment
same,Rotarod latency to fall,"[5]; R6/2, 0.67 g/l SAHA, 8 weeks of age",207 s
same,Rotarod latency to fall,"[5]; R6/2, 0.67 g/l SAHA, 10 weeks of age",187 s
same,Rotarod latency to fall,"[5]; R6/2, 0.67 g/l SAHA, 12 weeks of age",144 s
same,delay in the decline in Rotarod performance,"[5]; R6/2, 0.67 g/l SAHA, 12 weeks versus placebo at 8 weeks",delay by as much as one month
same,Rotarod performance versus placebo,"[5]; wild-type mice, 0.67 g/l SAHA",no significant difference
same,deaths before termination of the experiments at 13 weeks,"[6]; 0.67 g/l, R6/2 and wild-type",no R6/2 mice or wild-type mice died
same,OUTCOME,"[6]; 1.33 g/1, WT and R6/2, oral, 3 weeks",no adverse symptoms
same,mice that died at around 6 weeks of age,"[6]; 1.33 g/l from 30 days of age, R6/2",2/13
same,weight less than mice on the corresponding placebo,"[6]; 1.33 g/l from 30 days of age, after 2 weeks, wild-type and R6/2, data not shown",more than 20%
same,mice that died at around 6 weeks of age,"[6]; 1.33 g/l from 30 days of age, wild-type",2/12
same,OUTCOME,"[6]; DE to 2 g/1, R6/2, oral, 1 week",weight loss and one mouse (out of 4) died within one week
same,OUTCOME,"[6]; DE to 2.67 g/1+, WT, oral, 3 weeks",dramatic weight loss
same,toxicity,"[6]; administration initiated at 30 days, doses […]1.33 g/l, wild-type and R6/2",toxic
"Nc1ccccc1NC(=O)c1ccc(CNC(=O)OCc2cccnc2)cc1 [benzamide (MS-27-275), MS-275]",Effective Inhibitory Concentration Range,[1],μM
"CCCC(=O)O [butyrate, Butyric acid]",number of rhabdomeres per ommatidium at 6 days after eclosion,[7]; flies fed 100 mM butyrate,markedly improved
same,level of degeneration (loss of rhabdomeres),[7]; larvae reared on inhibitor-containing food,reduces the level of degeneration observed
same,Effective Inhibitory Concentration Range,[1],mM
same,progressive photoreceptor neuron degeneration,[4]; 100 mM butyrate,still prevented; also recorded: arrested
same,distribution of rhabdomeres by day 6,[4],same distribution of rhadomeres by day 6 as 1-day-old flies
same,neurodegenerative effect of Q48 (photographs of ommatidia),[4],disrupts the neurodegenerative effect of Q48
same,levels of histone H4 acetylation,[8],can be reversed by butyrate treatment
same,levels of histone H4 acetylation,[8]; listed as sodium butyrate,increased
"C/C=C1\NC(=O)[C@H]2CSSCC/C=C/[C@H](CC(=O)N[C@H](C(C)C)C(=O)N2)OC(=O)[C@H](C(C)C)NC1=O [depsipeptide, Depsipeptide]",Effective Inhibitory Concentration Range,[1],nM-μM
"C=C[C@@H](O)[C@@H]1O[C@H]1/C=C/[C@@H]1O[C@H]1[C@@H](C)O [depudecin, Depudecin]",Effective Inhibitory Concentration Range,[1],μM
O=C(/C=C/c1cccc(C(=O)NO)c1)NO [m-carboxy cinnamic acid bis-hydroxamic acid],Effective Inhibitory Concentration Range,[1],nM-μM
"O=C(O)CCCc1ccccc1 [phenylbutyrate, Phenylbutyrate]",Effective Inhibitory Concentration Range,[1],mM
O=C(CCCCCCC(=O)Nc1cccnc1)NO [pyroxamide],Effective Inhibitory Concentration Range,[1],nM-μM
"O=C(CCCCCN1C(=O)c2cccc3cccc(c23)C1=O)NO [scriptaid, Scriptaid]",Effective Inhibitory Concentration Range,[1],nM-μM
O=C(CCCCCCC(=O)NO)NO [suberic bis-hydroxamic acid],Effective Inhibitory Concentration Range,[1],nM-μM
Oxamflatin,Effective Inhibitory Concentration Range,[1],μM
